Assay results taken from US20260166045A1, “COMBINATION THERAPY COMPRISING GSPT1-DIRECTED MOLECULAR GLUE DEGRADERS AND PI3K/AKT/mTOR PATHWAY INHIBITORS” (Monte Rosa Therapeutics, Inc., priority 2022, published 2026).

Assays:
MM.1S cell line = assay: CTG viability, 11x11 concentration matrix, Loewe synergy (multiple myeloma); conditions: inhibitor combined with compound 1-1, 11x11 matrix, 72 hours
Experimental: (§4) Cells were cultured in the media recommended by the supplier.
(§5) On the day before compound addition, cells were seeded in 384-well-plates (white with clear flat bottom) at the densities indicated in Table 6 in 40 μL of growth medium. The next day, compounds were dispensed from 10 mM stocks using a HP D300 dispenser according to the concentration matrices described above. For each cell line, the compound concentration matrices were dispensed twice as side-by-side duplicates on one 384-well-plate. In addition, each plate contained 14 wells with only growth medium and 44 wells with cells treated with DMSO alone to calculate the average background and maximal signals, respectively. The final DMSO concentration was normalized to 0.2% across the plates. Plates were then incubated for 72 hours. CellTiter-Glo® Luminescent Cell Viability Assay (CTG, Promega G7570) reagent was prepared according to the manufacturer's instructions. Plates were equilibrated to room temperature for approximately 30 minutes, 25 μL CTG reagent was added to each well and plates were mixed on an orbital shaker for 10 minutes to allow for cell lysis. After further incubation for 20 minutes at room temperature, the clear bottoms of the plates were pasted with white back seal and luminescence was read on an EnVision plate reader (measurement time 0.1 seconds).

RPMI 8226 cell line = assay: as above; conditions: inhibitor combined with compound 1-1, 11x11 matrix, 72 hours
Experimental: as §4, §5

OPM-2 cell line = assay: as above; conditions: inhibitor combined with compound 1-1, 11x11 matrix, 72 hours
Experimental: as §4, §5

NCI-H1836 cell line = assay: CTG viability, 11x11 concentration matrix, Loewe synergy (SCLC); conditions: inhibitor combined with compound 1-1, 11x11 matrix, 72 hours
Experimental: as §4, §5

NCI-H209 cell line = assay: as above; conditions: inhibitor combined with compound 1-1, 11x11 matrix, 72 hours
Experimental: as §4, §5

DB cell line = assay: CTG viability, 11x11 concentration matrix, Loewe synergy (lymphoma); conditions: inhibitor combined with compound 1-1, 11x11 matrix, 72 hours
Experimental: as §4, §5

NCI-H1876 cell line = assay: CTG viability, 11x11 concentration matrix, Loewe synergy (SCLC); conditions: inhibitor combined with compound 1-1, 11x11 matrix, 72 hours
Experimental: as §4, §5

NCI-H526 cell line = assay: as above; conditions: inhibitor combined with compound 1-1, 11x11 matrix, 72 hours
Experimental: as §4, §5

SU-DHL-6 cell line = assay: CTG viability, 11x11 concentration matrix, Loewe synergy (lymphoma); conditions: inhibitor combined with compound 1-1, 11x11 matrix, 72 hours
Experimental: as §4, §5

U266B1 cell line = assay: CTG viability, 11x11 concentration matrix, Loewe synergy (multiple myeloma); conditions: inhibitor combined with compound 1-1, 11x11 matrix, 72 hours
Experimental: as §4, §5

RAJI cell line = assay: CTG viability, 11x11 concentration matrix, Loewe synergy (lymphoma); conditions: inhibitor combined with compound 1-1, 11x11 matrix, 72 hours
Experimental: as §4, §5

NCI-H69 cell line = assay: CTG viability, 11x11 concentration matrix, Loewe synergy (SCLC); conditions: inhibitor combined with compound 1-1, 11x11 matrix, 72 hours
Experimental: as §4, §5

WSU-DLCL2 cell line = assay: CTG viability, 11x11 concentration matrix, Loewe synergy (lymphoma); conditions: inhibitor combined with compound 1-1, 11x11 matrix, 72 hours
Experimental: as §4, §5

KMS-34 cell line = assay: CTG viability, 11x11 concentration matrix, Loewe synergy (multiple myeloma); conditions: inhibitor combined with compound 1-1, 11x11 matrix, 72 hours
Experimental: as §4, §5

DOHH-2 cell line = assay: CTG viability, 11x11 concentration matrix, Loewe synergy (lymphoma); conditions: inhibitor combined with compound 1-1, 11x11 matrix, 72 hours
Experimental: as §4, §5

MCF7 xenografts = assay: MCF7 cell-derived xenograft (CDX) in vivo combination study; design: species or system BALB/c nude mice; conditions: compound 1-1 10 mg/kg
Experimental: […] (0.36 mg) pellets (Innovative Research of America Cat. No.: SE-121, pellet size: 3.0 mm) were implanted 2-3 days before cell inoculation.
(§1) Compound 1-1 was formulated every day freshly as a solution in 5% DMSO/95% (30% w/v HPβCD in water). This formulation was also used as vehicle control. Everolimus was formulated as a suspension in 1% MC (400 cps), which was prepared every 3 days.
(§2) Body weights were measured at the same time.
An approximation of drug interactions was made using the method described by Clarke (Clarke et al. 1997. Breast Cancer Res Treat. 46(2-3):255-78). This was applied to […] and can estimate interactions from limited data. In short, for compound A, B, or the combination AB (with control group C), antagonism is predicted when (AB)/C>(A/C)×(B/C), an additive effect is predicted when (AB)/C=(A/C)×(B/C), and synergistic interaction is predicted to occur when (AB)/C<(A/C)×(B/C). Calculations in Table 10B indicate that the interaction of everolimus and compound 1-1 in the MCF7 CDX model is synergistic.
17β-Estradiol (0.36 mg) pellets (Innovative Research of America Cat. No.: SE-121, pellet size: 3.0 mm) were implanted 2-3 days before cell inoculation.
(§3) Compound 1-1 was formulated every day freshly as a solution in 5% DMSO/95% (30% w/v HPβCD in water). This formulation was also used as vehicle control. Alpelisib was formulated as a solution in 20% captisol+80% water (pH adjusted to 4), which was prepared every week.

CAL51 xenografts = assay: CAL51 cell-derived xenograft (CDX) in vivo combination study; design: species or system SCID Beige mice; conditions: compound 1-1 3 mg/kg
Experimental: as §1, §2, §3

[1] = system: PDX models LU5188, LU5247, LU5236, LU1508, LU5215, LU5137; assay: Lung cancer patient-derived xenograft (PDX) in vivo combination study; design: species or system BALB/c nude or NOD/SCID mice; conditions: six lung cancer PDX models; everolimus 5 mg/kg qd p.o.
Experimental: • Models: The study was conducted at Crown Bioscience with the PDX models LU5188 (small cell lung neuroendocrine carcinoma), LU5247 (non-small cell lung adenocarcinoma), LU5236 (small cell lung neuroendocrine carcinoma), LU1508 (small cell lung neuroendocrine carcinoma), LU5215 (small cell lung neuroendocrine carcinoma), and LU5137 (large cell neuroendocrine carcinoma). • Animals: BALB/c nude (LU1508) or NOD/SCID (all other models) female mice, 5-7 weeks old, weighing approximately 22-25 g, were purchased from certified vendors.
Tumor Inoculation: Fresh tumor tissues was harvest from tumor bearing mice, cut into small pieces (approximately 2-3 mm in diameter) and was kept in RPMI1640 cell culture medium at 4° C.). Lidocaine cream was applied to the PDX fragment inoculation site 1 hour before the operation. In addition, hair was removed from NOD/SCID mice before fragment implantation. Each animal was disinfected at the inoculation site with alcohol swap, PDX tumor fragments were inserted subcutaneously at the upper right dorsal flank with a trocar. The trocar was withdrawn any air bubbles under the skin were extruded.
Both compounds were administered orally.
as §2

For `CO[C@H]1C[C@@H]2CC[C@@H](C)[C@@](O)(O2)C(=O)C(=O)N2CCCC[C@H]2C(=O)O[C@H]([C@H](C)C[C@@H]2CC[C@@H](OCCO)[C@H](OC)C2)CC(=O)[C@H](C)/C=C(\C)[C@@H](O)[C@@H](OC)C(=O)[C@H](C)C[C@H](C)/C=C/C=C/C=C/1C` [Everolimus, (1R,9S,12S,15R,16E,18R,19R,21R,23S,24E,26E,28E,30S,32S,35R)-1,18-dihydroxy-12-[(2R)-1-[(1S,3R,4R)-4-(2-hydroxyethoxy)-3-methoxycyclohexyl]propan-2-yl]-19,30-dimethoxy-15,17,21,23,29,35-hexamethyl-11,36-dioxa-4-azatricyclo[30.3.1.0^4,9]hexatriaconta-16,24,26,28-tetraene-2,3,10,14,20-pentone], the “Mean Loewe synergy score, MM.1S” value (MM.1S cell line) was 6.7, the “Mean Loewe synergy score, RPMI 8226” value (RPMI 8226 cell line) was 20.75 and the “Mean Loewe synergy score, OPM-2” value (OPM-2 cell line) was 5.3. For the same compound, the “Mean Loewe synergy score, NCI-H1836” value (NCI-H1836 cell line) was 1.58, the “Mean Loewe synergy score, NCI-H209” value (NCI-H209 cell line) was 6.14 and the “Mean Loewe synergy score, DB” value (DB cell line) was 5.81. For the same compound, the “Mean Loewe synergy score, NCI-H1876” value (NCI-H1876 cell line) was −0.29, the “Mean Loewe synergy score, NCI-H526” value (NCI-H526 cell line) was 6.49 and the “Mean Loewe synergy score, SUDHL6” value (SU-DHL-6 cell line) was 12.05. For the same compound, the “Mean Loewe synergy score, U266B1” value (U266B1 cell line) was 4.16, the “Mean Loewe synergy score, RAJI” value (RAJI cell line) was 14.66 and the “Mean Loewe synergy score, NCI-H69” value (NCI-H69 cell line) was 9.46. The “Mean Loewe synergy score, WSU-DLCL2” value (WSU-DLCL2 cell line) was 8.29, the “Mean Loewe synergy score, KMS-34” value (KMS-34 cell line) was 16.19 and the “Mean Loewe synergy score, DOHH2” value (DOHH-2 cell line) was 6.48. The “antitumor effect vs vehicle (tumor volume)” value (MCF7 xenografts; day 28, ANOVA with post hoc Tukey's test, everolimus 2 mg/kg, p.o. qd) was “statistically significant antitumor effects”, the “Δ TV ratio to vehicle group (A/C, B/C, (AB)/C)” value (MCF7 xenografts; day 28, Clarke method, everolimus 2 mg/kg, p.o. qd) was 0.26 and the “Δ TV (delta tumor volume)” value (MCF7 xenografts; day 28, everolimus 2 mg/kg, combination 2 + 10 mg/kg, p.o. qd for 28 days, average of four tumors) was 164 mm3. For the same compound, the “antitumor effect vs vehicle (tumor volume)” value (CAL51 xenografts; day 21, ANOVA with post hoc Tukey's test, everolimus 2 mg/kg, p.o. qd) was “did not significantly impede tumor growth”, the “Δ TV ratio to vehicle group (A/C, B/C, (AB)/C)” value (CAL51 xenografts; day 21, Clarke method, everolimus 2 mg/kg, p.o. qd) was 0.87 and the “Δ TV (delta tumor volume)” value (CAL51 xenografts; day 21, everolimus 2 mg/kg, combination 2 + 3 mg/kg, p.o. qd for 21 days, average of four tumors) was 491 mm3. The body weight loss [1] was “Body weight loss was caused by everolimus dosing”.
